Measurements as given in ChEMBL document CHEMBL4507273 (2021).

How the values were obtained:
[1] = target: Mitogen-activated protein kinase 8 (Homo sapiens) (UniProt P45983); settings: Compound concentration 1000.0 nM
[2] = test system: Tyrosine-protein kinase ABL1 (Homo sapiens), P00519 [E255K]; settings: Compound concentration 1000.0 nM
[3] = target: Mitogen-activated protein kinase kinase kinase 15 (Homo sapiens) (UniProt Q6ZN16); settings: Compound concentration 1000.0 nM
[4] = test system: Phosphatidylinositol 4,5-bisphosphate 3-kinase catalytic subunit alpha isoform (Homo sapiens), P42336 [E542K]; settings: Compound concentration 1000.0 nM
[5] = test system: Tyrosine-protein kinase ABL1 (Homo sapiens), P00519 [Y253F]; settings: Compound concentration 1000.0 nM
[6] = target: Sodium-dependent noradrenaline transporter (Homo sapiens, UniProt P23975); settings: Compound concentration 10.0 uM
[7] = target: Insulin receptor (Homo sapiens) (UniProt P06213); settings: Compound concentration 1000.0 nM
[8] = target: Muscarinic acetylcholine receptor M5 (Homo sapiens) (UniProt P08912); settings: Compound concentration 10.0 uM
[9] = target: Calcium/calmodulin-dependent protein kinase type 1G (Homo sapiens) (UniProt Q96NX5); settings: Compound concentration 1000.0 nM
[10] = target: Ribosomal protein S6 kinase alpha-3 (Homo sapiens) (UniProt P51812); settings: Compound concentration 1000.0 nM
Ribosomal protein S6 kinase alpha-3 (Homo sapiens), sequence (P51812 whole entry): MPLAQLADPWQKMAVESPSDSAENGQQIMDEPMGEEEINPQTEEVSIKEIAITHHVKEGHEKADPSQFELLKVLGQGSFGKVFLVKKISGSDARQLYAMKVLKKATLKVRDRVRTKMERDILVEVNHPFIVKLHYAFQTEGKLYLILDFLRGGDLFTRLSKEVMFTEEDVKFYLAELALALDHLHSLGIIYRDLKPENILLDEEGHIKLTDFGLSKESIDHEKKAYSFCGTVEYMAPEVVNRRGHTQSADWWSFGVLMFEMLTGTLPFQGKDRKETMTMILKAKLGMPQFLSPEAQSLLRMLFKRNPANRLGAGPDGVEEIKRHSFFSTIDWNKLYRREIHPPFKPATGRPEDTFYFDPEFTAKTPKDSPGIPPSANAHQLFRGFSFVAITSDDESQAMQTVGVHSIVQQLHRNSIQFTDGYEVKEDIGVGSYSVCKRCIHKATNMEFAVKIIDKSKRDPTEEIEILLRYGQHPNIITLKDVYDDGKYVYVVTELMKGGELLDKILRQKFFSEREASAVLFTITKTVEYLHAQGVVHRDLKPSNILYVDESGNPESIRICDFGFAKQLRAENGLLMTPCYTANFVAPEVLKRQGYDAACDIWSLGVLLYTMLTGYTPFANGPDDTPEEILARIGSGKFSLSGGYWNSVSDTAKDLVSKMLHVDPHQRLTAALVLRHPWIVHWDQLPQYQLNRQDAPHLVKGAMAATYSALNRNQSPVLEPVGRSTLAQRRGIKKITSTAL

[11] = target: Mitogen-activated protein kinase kinase kinase kinase 4 (Homo sapiens) (UniProt O95819); settings: Compound concentration 1000.0 nM
Mitogen-activated protein kinase kinase kinase kinase 4 (Homo sapiens), sequence (O95819 2-1239 limits assumed): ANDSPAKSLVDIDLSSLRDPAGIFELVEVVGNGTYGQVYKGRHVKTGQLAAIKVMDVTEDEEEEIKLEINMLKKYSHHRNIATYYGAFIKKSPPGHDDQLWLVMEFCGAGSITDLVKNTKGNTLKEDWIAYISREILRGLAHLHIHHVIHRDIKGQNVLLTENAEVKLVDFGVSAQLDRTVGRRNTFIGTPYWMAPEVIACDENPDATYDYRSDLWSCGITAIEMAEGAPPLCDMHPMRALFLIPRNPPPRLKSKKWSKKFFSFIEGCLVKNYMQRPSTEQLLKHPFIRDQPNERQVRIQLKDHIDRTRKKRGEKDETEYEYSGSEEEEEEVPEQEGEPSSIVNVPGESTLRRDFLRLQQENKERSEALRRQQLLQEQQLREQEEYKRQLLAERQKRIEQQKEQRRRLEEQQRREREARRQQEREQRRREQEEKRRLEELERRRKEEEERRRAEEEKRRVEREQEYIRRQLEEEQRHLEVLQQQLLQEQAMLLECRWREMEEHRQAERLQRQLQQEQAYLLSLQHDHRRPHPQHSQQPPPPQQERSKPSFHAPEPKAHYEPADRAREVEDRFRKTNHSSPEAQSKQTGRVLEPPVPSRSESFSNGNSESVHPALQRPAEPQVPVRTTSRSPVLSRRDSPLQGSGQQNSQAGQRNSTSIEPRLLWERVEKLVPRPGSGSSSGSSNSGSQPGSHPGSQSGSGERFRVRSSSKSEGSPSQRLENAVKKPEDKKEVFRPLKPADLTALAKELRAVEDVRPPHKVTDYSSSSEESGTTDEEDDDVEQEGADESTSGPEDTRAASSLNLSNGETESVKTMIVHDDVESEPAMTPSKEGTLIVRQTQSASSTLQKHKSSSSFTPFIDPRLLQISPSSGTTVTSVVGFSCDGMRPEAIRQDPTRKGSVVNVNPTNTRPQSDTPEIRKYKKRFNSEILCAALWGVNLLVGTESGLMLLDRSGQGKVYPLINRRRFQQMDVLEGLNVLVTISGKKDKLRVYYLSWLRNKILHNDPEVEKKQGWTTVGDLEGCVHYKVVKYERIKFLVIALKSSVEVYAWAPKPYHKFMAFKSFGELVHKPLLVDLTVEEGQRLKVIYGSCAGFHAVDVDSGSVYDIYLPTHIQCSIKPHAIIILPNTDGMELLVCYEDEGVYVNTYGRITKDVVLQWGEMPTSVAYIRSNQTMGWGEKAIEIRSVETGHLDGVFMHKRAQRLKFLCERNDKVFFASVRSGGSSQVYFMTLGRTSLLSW

[12] = target: Sigma intracellular receptor 2 (Homo sapiens, UniProt Q5BJF2); settings: Compound concentration 10.0 uM
Sigma intracellular receptor 2, sequence (Q5BJF2 whole entry): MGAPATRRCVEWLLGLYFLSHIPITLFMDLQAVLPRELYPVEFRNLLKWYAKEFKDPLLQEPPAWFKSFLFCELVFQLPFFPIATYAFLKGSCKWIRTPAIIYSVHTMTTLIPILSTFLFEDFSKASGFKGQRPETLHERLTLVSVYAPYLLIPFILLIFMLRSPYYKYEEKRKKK

[13] = target: 5-hydroxytryptamine receptor 1D (Homo sapiens, UniProt P28221); assay: GPCRScan assay: inhibition of 5-HT1D; parameters: radioligand conc. used [nm] 1.0 – 2.0, parental cells HEKT
5-hydroxytryptamine receptor 1D, sequence (P28221 whole entry): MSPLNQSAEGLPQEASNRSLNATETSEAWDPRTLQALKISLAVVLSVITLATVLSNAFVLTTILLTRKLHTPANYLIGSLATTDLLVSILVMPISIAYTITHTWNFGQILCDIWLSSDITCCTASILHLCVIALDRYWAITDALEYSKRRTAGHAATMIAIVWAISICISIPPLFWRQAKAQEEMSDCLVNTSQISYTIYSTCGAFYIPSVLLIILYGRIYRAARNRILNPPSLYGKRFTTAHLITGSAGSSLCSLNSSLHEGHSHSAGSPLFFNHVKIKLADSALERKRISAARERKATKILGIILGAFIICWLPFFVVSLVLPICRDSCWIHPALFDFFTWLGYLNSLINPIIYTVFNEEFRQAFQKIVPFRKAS

[14] = target: Sodium-dependent dopamine transporter (Homo sapiens, UniProt Q01959); assay: GPCRScan assay: inhibition of DAT; parameters: radioligand conc. used [nm] 3.6 – 16.0, parental cells stable HEK
Sodium-dependent dopamine transporter, sequence (Q01959 whole entry): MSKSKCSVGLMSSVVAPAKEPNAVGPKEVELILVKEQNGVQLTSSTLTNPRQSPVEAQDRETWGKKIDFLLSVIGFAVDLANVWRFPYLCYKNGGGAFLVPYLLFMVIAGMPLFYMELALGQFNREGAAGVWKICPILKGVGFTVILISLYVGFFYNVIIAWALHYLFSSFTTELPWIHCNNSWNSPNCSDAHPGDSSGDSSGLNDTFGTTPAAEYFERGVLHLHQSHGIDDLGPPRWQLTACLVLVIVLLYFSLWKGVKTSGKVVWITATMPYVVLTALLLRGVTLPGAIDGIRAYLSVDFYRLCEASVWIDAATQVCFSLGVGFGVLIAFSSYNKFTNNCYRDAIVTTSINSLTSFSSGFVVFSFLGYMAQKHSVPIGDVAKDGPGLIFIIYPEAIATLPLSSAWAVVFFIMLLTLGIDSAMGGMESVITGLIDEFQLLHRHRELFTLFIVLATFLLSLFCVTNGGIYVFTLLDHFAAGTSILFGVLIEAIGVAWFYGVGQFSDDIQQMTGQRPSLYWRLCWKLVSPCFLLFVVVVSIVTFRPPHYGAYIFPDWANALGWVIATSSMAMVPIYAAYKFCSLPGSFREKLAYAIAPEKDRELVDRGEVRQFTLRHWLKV

[15] = target: MAP/microtubule affinity-regulating kinase 3 (Homo sapiens) (UniProt P27448); settings: Compound concentration 1000.0 nM
[16] = target: 3-phosphoinositide-dependent protein kinase 1 (Homo sapiens) (UniProt O15530); settings: Compound concentration 1000.0 nM
[17] = target: Serine/threonine-protein kinase 33 (Homo sapiens) (UniProt Q9BYT3); settings: Compound concentration 1000.0 nM
[18] = target: Cyclin-dependent kinase 19 (Homo sapiens) (UniProt Q9BWU1); settings: Compound concentration 1000.0 nM
[19] = test system: Mast/stem cell growth factor receptor Kit (Homo sapiens), P10721 [D816H]; settings: Compound concentration 1000.0 nM
[20] = target: Protein kinase C eta type (Homo sapiens) (UniProt P24723); settings: Compound concentration 1000.0 nM
[21] = target: Cyclin-dependent kinase 13 (Homo sapiens) (UniProt Q14004); settings: Compound concentration 1000.0 nM
[22] = target: Serine/threonine-protein kinase 36 (Homo sapiens) (UniProt Q9NRP7); settings: Compound concentration 1000.0 nM
[23] = test system: Tyrosine-protein kinase ABL1 (Homo sapiens), P00519 [F317I]; settings: Compound concentration 1000.0 nM
[24] = target: Serine/threonine-protein kinase LATS2 (Homo sapiens) (UniProt Q9NRM7); settings: Compound concentration 1000.0 nM
[25] = test system: Tyrosine-protein kinase ABL1 (Homo sapiens), P00519 [F317L]; settings: Compound concentration 1000.0 nM
[26] = test system: Receptor-type tyrosine-protein kinase FLT3 (Homo sapiens), P36888 [D835V]; settings: Compound concentration 1000.0 nM
[27] = target: Mitogen-activated protein kinase 11 (Homo sapiens) (UniProt Q15759); settings: Compound concentration 1000.0 nM
[28] = target: Muscarinic acetylcholine receptor M4 (Homo sapiens) (UniProt P08173); settings: Compound concentration 10.0 uM
[29] = target: 5-hydroxytryptamine receptor 1B (Homo sapiens, UniProt P28222); assay: GPCRScan assay: inhibition of 5-HT1B; parameters: radioligand conc. used [nm] 0.6 – 1.5, parental cells stable HEK
5-hydroxytryptamine receptor 1B, sequence (P28222 whole entry): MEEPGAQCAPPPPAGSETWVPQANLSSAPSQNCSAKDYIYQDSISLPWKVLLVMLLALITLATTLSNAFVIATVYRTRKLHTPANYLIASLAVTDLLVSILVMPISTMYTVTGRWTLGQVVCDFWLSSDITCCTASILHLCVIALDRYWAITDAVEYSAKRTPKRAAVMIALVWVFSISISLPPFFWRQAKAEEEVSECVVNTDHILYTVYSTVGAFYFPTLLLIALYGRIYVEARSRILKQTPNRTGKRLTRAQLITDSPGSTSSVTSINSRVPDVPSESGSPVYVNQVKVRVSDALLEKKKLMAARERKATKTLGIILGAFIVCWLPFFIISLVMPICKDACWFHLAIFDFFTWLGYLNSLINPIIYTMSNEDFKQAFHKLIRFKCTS

[30] = target: Muscle, skeletal receptor tyrosine-protein kinase (Homo sapiens) (UniProt O15146); settings: Compound concentration 1000.0 nM
[31] = target: cGMP-dependent protein kinase 2 (Homo sapiens) (UniProt Q13237); settings: Compound concentration 1000.0 nM
cGMP-dependent protein kinase 2 (Homo sapiens), sequence (Q13237 whole entry): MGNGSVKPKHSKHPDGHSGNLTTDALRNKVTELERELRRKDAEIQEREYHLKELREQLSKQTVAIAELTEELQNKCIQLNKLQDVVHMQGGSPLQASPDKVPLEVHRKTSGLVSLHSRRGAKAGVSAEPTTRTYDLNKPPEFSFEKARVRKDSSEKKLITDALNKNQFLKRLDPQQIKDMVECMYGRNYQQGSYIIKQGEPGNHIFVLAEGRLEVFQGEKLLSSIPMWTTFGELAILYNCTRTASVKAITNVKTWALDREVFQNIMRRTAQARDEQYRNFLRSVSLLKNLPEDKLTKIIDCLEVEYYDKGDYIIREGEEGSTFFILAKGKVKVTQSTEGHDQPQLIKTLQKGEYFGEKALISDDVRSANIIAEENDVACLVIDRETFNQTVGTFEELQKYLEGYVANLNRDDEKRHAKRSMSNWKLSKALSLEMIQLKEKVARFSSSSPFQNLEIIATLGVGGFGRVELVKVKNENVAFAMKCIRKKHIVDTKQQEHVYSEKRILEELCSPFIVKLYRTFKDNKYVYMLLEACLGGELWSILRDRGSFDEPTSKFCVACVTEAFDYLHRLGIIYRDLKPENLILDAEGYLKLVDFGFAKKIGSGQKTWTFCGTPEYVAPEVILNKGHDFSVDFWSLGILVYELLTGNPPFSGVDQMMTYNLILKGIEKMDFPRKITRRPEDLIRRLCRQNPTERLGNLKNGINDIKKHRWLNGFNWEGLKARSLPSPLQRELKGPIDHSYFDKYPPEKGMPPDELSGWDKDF

[32] = target: Receptor-interacting serine/threonine-protein kinase 4 (Homo sapiens) (UniProt P57078); settings: Compound concentration 1000.0 nM
[33] = target: Serine/threonine-protein kinase pim-1 (Homo sapiens) (UniProt P11309); settings: Compound concentration 1000.0 nM
Serine/threonine-protein kinase pim-1 (Homo sapiens), sequence (P11309 whole entry, looked up): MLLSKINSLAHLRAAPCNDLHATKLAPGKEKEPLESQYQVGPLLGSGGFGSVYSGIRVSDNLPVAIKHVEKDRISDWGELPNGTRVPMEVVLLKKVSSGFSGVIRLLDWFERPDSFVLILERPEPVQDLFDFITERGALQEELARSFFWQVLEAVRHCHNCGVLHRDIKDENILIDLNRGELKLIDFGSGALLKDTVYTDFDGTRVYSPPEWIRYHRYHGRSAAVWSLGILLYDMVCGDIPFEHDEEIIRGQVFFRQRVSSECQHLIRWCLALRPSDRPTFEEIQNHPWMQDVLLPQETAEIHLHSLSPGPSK

[34] = target: Guanine nucleotide exchange factor DBS (Homo sapiens, UniProt O15068); assay: CDC42 activation by DBS assay
[35] = test system: Leucine-rich repeat serine/threonine-protein kinase 2 (Homo sapiens), Q5S007 [G2019S]; settings: Compound concentration 1000.0 nM
[36] = target: RAF proto-oncogene serine/threonine-protein kinase (Homo sapiens) (UniProt P04049); settings: Compound concentration 1000.0 nM
[37] = target: Mitogen-activated protein kinase kinase kinase kinase 1 (Homo sapiens) (UniProt Q92918); settings: Compound concentration 1000.0 nM
[38] = target: Serine/threonine-protein kinase pim-2 (Homo sapiens) (UniProt Q9P1W9); settings: Compound concentration 1000.0 nM
[39] = target: 5-hydroxytryptamine receptor 1E (Homo sapiens) (UniProt P28566); settings: Compound concentration 10.0 uM
5-hydroxytryptamine receptor 1E (Homo sapiens), sequence (P28566 whole entry): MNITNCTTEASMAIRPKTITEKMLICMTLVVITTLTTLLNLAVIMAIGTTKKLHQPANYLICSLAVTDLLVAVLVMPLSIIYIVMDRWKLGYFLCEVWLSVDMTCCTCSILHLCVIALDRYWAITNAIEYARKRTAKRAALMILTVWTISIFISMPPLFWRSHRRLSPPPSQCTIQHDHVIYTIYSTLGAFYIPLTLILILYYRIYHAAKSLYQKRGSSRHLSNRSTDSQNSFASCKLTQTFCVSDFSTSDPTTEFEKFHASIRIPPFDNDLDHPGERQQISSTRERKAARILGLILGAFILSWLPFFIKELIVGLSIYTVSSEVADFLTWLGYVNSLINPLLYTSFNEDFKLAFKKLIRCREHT

[40] = target: Mitogen-activated protein kinase kinase kinase 1 (Homo sapiens) (UniProt Q13233); settings: Compound concentration 1000.0 nM
[41] = target: Fibroblast growth factor receptor 4 (Homo sapiens) (UniProt P22455); settings: Compound concentration 1000.0 nM
[42] = target: Activin receptor type-1-like (Homo sapiens) (UniProt P37023); settings: Compound concentration 1000.0 nM
[43] = target: Activin receptor type-1 (Homo sapiens) (UniProt Q04771); settings: Compound concentration 1000.0 nM
[44] = target: Tyrosine-protein kinase Mer (Homo sapiens) (UniProt Q12866); settings: Compound concentration 1000.0 nM
[45] = target: Cyclin-dependent kinase-like 1 (Homo sapiens) (UniProt Q00532); settings: Compound concentration 1000.0 nM

Molecule CNCc1ccccc1-c1csc([C@@H](C)Nc2nc(C)nc3cc(OC)c(OC)cc23)c1 [BAY-293] has a residual activity [1] of 66%, a residual activity [2] of 75% and a residual activity [3] of 60%. It also gave a residual activity [4] of 80%, a residual activity [5] of 94% and an inhibition [6] of 84%. For the same molecule, the residual activity [7] was 79%, the inhibition [8] was 64.8% and the residual activity [9] was 93%. It also gave a residual activity [10] of 76%, a residual activity [11] of 100% and an inhibition [12] of 94.8%. It also gave a Ki ([13]; read-out: Ki) of 181 nM, a Ki ([13]; read-out: pKi (converted)) of 170 nM and a Ki ([14]; read-out: Ki) of 522 nM. For the same molecule, the Ki ([14]; read-out: pKi (converted)) was 479 nM, the residual activity [15] was 89% and the residual activity [16] was 92%. For the same molecule, the residual activity [17] was 45%, the residual activity [18] was 85% and the residual activity [19] was 85%. For the same molecule, the residual activity [20] was 100%, the residual activity [21] was 89% and the residual activity [22] was 100%. It also gave a residual activity [23] of 100%, a residual activity [24] of 98% and a residual activity [25] of 100%. For the same molecule, the residual activity [26] was 70%, the residual activity [27] was 86% and the inhibition [28] was 43.1%. It also gave a Ki ([29]; read-out: Ki) of 1410 nM, a Ki ([29]; read-out: pKi (converted)) of 1350 nM and a residual activity [30] of 93%. The residual activity [31] was 85%, the residual activity [32] was 91% and the residual activity [33] was 97%. For the same molecule, the IC50 [34] was > 20000 nM (not active), the residual activity [35] was 72% and the residual activity [36] was 70%. For the same molecule, the residual activity [37] was 83%, the residual activity [38] was 100% and the inhibition [39] was 5.81%. The residual activity [40] was 72%, the residual activity [41] was 100% and the residual activity [42] was 87%. The residual activity [43] was 100%, the residual activity [44] was 61% and the residual activity [45] was 93%.

In the case of CNCc1ccccc1-c1csc([C@H](C)Nc2nc(C)nc3cc(OC)c(OC)cc23)c1 [BAY-294], the residual activity [1] is reported as 81%, the residual activity [2] is reported as 81% and the residual activity [3] is reported as 77%. For the same molecule, the residual activity [4] was 88%, the residual activity [5] was 94% and the inhibition [6] was 69.3%. For the same molecule, the residual activity [7] was 89%, the inhibition [8] was 54.1% and the residual activity [9] was 96%. For the same molecule, the residual activity [10] was 78%, the residual activity [11] was 97% and the inhibition [12] was 83.2%. The Ki ([13]; read-out: Ki) was 93.5 nM, the Ki ([13]; read-out: pKi (converted)) was 92.3 nM and the Ki ([14]; read-out: Ki) was 1670 nM. The Ki ([14]; read-out: pKi (converted)) was 1410 nM, the residual activity [15] was 100% and the residual activity [16] was 100%. For the same molecule, the residual activity [17] was 73%, the residual activity [18] was 88% and the residual activity [19] was 95%. For the same molecule, the residual activity [20] was 100%, the residual activity [21] was 93% and the residual activity [22] was 100%. It also gave a residual activity [23] of 100%, a residual activity [24] of 95% and a residual activity [25] of 100%. For the same molecule, the residual activity [26] was 88%, the residual activity [27] was 100% and the inhibition [28] was 59.4%. It also gave a Ki ([29]; read-out: Ki) of 1760 nM, a residual activity [30] of 90% and a residual activity [31] of 93%. The residual activity [32] was 75%, the residual activity [33] was 100% and the IC50 [34] was > 20000 nM (not active). For the same molecule, the residual activity [35] was 84%, the residual activity [36] was 65% and the residual activity [37] was 100%. The residual activity [38] was 100%, the inhibition [39] was 10.8% and the residual activity [40] was 97%. The residual activity [41] was 100%, the residual activity [42] was 100% and the residual activity [43] was 100%. The residual activity [44] was 72% and the residual activity [45] was 100%.
